In ChEMBL document CHEMBL1201862, “PubChem BioAssay data set” (2004):
Active and inactive are the calls of the source.

Columns and labels:
[1] = molecular target: T1, Sentrin-specific protease 1 (Homo sapiens, UniProt Q9P0U3); assay: SENP1 catalytic domain blockers, concentration series – biochemical, kinetic FRET, dose response (AID 651697); format: functional; conditions: read-out: IC50_Mean
T1 sequence (Q9P0U3 whole entry): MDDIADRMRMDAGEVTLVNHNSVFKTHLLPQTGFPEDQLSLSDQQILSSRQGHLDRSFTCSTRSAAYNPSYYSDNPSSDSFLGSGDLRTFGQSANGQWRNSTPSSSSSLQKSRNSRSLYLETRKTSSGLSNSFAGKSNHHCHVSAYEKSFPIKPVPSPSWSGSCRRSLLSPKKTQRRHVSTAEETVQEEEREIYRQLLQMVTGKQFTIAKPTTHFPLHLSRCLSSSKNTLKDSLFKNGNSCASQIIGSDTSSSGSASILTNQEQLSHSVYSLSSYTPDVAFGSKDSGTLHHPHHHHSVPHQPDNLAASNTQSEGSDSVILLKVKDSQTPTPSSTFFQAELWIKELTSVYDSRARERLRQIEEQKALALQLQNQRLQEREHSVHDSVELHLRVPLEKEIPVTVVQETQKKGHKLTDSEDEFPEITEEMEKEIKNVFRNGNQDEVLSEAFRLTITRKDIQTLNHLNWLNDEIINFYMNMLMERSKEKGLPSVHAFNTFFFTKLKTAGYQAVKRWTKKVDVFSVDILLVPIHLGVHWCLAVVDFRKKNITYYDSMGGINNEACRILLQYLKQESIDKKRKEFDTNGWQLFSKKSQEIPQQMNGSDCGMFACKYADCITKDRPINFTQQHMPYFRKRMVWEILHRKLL

[2] = molecular target: T1, Sentrin-specific protease 1; assay: Dose response confirmation of small molecule inhibitors of the catalytic domain of the SUMO protease, SENP1 in a FRET assay.; format: functional; conditions: read-out: IC50_Mean
[3] = molecular target: T2, Orexin/Hypocretin receptor type 1 (Homo sapiens, UniProt O43613); assay: (§1) Fluorescence-based cell-based high throughput dose response assay for antagonists of the orexin 1 receptor (OX1R; HCRTR1). [Related pubchem assays (depositor defined):AID434989, AID435008, AID463079, AID485270, AID492963, AID492964, AID492965, AID493232, AID504717, AID504718]; format: functional
T2 sequence (O43613 whole entry): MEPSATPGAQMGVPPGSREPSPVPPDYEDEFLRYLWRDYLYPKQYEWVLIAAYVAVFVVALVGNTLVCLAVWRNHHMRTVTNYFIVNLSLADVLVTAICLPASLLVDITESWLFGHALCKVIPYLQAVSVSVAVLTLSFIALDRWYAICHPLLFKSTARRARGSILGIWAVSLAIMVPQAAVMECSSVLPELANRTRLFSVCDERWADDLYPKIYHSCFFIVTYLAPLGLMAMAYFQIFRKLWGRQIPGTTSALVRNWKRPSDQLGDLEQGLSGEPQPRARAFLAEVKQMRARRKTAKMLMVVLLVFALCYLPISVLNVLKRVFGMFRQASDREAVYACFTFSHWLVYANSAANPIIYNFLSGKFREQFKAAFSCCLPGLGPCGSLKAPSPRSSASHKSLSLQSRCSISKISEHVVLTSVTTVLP

Orexin receptor type 2 [4] = molecular target: T3, Orexin receptor type 2 (Homo sapiens, UniProt O43614); assay: Counterscreen assay for antagonists of the orexin 1 receptor (OX1R; HCRTR1): Homogeneous Time Resolved Fluorescence (HTRF)-based cell-based dose response assay for antagonists of the orexin 2 receptor (OX2R; HCRTR2), run by assay provider.; format: functional
T3 sequence (O43614 whole entry): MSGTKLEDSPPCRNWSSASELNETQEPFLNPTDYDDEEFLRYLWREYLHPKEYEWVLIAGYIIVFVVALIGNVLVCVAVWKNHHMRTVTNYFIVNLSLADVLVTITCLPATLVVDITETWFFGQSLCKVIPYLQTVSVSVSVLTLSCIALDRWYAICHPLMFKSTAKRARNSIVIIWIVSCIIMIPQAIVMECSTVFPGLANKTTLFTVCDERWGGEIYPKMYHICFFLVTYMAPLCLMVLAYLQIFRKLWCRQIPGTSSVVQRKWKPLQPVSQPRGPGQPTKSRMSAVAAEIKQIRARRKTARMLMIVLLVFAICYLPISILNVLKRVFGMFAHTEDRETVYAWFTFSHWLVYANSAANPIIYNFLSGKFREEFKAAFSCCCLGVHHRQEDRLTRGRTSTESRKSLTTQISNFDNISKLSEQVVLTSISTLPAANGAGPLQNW

Orexin receptor type 2 [5] = molecular target: T3, Orexin receptor type 2; assay: Counterscreen assay for antagonists of the orexin 1 receptor (OX1R; HCRTR1): Fluorescence-based cell-based dose response assay for antagonists of the orexin 2 receptor (OX2R; HCRTR2), run by assay provider.; format: functional
[6] = molecular target: T2, Orexin/Hypocretin receptor type 1; assay: as §1, with “Homogeneous Time Resolved Fluorescence (HTRF)-based” for “Fluorescence-based”; format: functional
CHO-K1 = assay: (§2) Counterscreen for antagonists of the orexin 1 receptor (OX1R; HCRTR1): Homogeneous time resolved fluorescence (HTRF)-based cell-based dose response assay to identify antagonists of the parental CHO-K1 cell line. [Related pubchem assays (depositor defined):AID434989, AID435008, AID463079, AID485270, AID492963, AID492964, AID492965, AID493232, AID504699, AID504701]; format: functional; conditions: Cricetulus griseus
[7] = as §2, with “Fluorescence-based” for “Homogeneous time resolved fluorescence (HTRF)-based”, “cell-based high throughput” for “cell-based”, “CHO” for “CHO-K1”; format: functional
[8] = molecular target: T4, Low molecular weight phosphotyrosine protein phosphatase (Homo sapiens, UniProt P24666); format: functional; conditions: read-out: IC50_Mean
[9] = molecular target: T4, Low molecular weight phosphotyrosine protein phosphatase; format: functional; conditions: read-out: IC50_Mean; remark: listed apart in the source
Protein Wnt-3a = Protein Wnt-3a (Mus musculus, UniProt P27467); assay: antagonism of Wnt3a pathway luciferase reporter – Wnt-LIGHT cells, luminescence, selectivity assay for Gli-SUFU antagonist project, dose response (AID 651570); format: functional; conditions: read-out: IC50_Mean;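 note: Wnt-LIGHT reporter cells stimulated with conditioned medium from Wnt3a-producing cells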
[10] = Luminescence Cell-Based Dose Response HTS to Identify Inhibitors of 5'UTR Stem-Loop Driven Prion Protein mRNA Translation in H4 Neuroglioblastoma Cells. [Related pubchem assays: 1827 (Project Summary), 1813 (Primary HTS)]; format: functional
[11] = viability of uninfected HEp-2 cells – cell-based, HTS, cytotoxicity control for RSV inhibitor project, dose response (AID 2410); format: functional; conditions: human respiratory syncytial virus
[12] = luciferase reporter signal suppression in cells – H4 neuroglioma cells, luminescence, dose response (AID 1990); format: functional, cell-based
[13] = molecular target: T5, Heat shock factor protein 1 (Mus musculus, UniProt P38532); assay: decrease of HSF1-responsive luciferase luminescence – cell-based, NIH3T3, dose retest, confirmation (AID 2382); format: functional;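 note: NIH3T3 fibroblasts with HSF1-driven luciferase reporter stressed by proteasome inhibitor MG132; luminescence from HSF1-driven luciferase expression after 8 hours of MG132 stress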
T5 sequence (P38532 whole entry): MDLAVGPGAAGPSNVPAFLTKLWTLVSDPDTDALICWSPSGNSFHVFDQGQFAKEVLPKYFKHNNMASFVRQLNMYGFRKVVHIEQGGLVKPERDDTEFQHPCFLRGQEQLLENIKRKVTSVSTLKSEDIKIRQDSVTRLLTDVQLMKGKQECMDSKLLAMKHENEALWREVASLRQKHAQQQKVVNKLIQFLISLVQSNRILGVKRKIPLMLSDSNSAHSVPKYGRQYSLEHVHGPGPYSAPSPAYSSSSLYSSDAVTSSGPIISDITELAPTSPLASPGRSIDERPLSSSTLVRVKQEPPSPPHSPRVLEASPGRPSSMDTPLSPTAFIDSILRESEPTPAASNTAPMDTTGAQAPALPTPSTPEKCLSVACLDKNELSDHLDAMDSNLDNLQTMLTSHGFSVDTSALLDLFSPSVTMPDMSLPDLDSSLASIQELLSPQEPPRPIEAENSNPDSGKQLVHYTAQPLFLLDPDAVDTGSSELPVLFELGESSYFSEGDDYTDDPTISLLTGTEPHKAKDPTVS

[14] = alpha-synuclein stem-loop luciferase translation blockers – H4 neuroglioma cells, luminescence, confirmation (AID 1988); format: functional, cell-based
[15] = molecular target: Ras and Rab interactor 1/Tyrosine-protein kinase ABL1 (Homo sapiens, UniProt P00519+Q13671); format: functional;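 note: biochemical TR-FRET dose-response test measuring inhibition of binding between Rin1 and Abl proteins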
[16] = molecular target: T6, ATP-dependent translocase ABCB1 (Homo sapiens, UniProt P08183); assay: inhibition of BCRP-mediated JC-1 efflux – Ig-MXP3 cells, flow cytometry, set 2, dose response (AID 504566); format: functional; conditions: read-out: EC50_MICROM_;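 note: flow cytometry median green fluorescence of retained JC-1 dye; potency of efflux pump inhibition measured as rising substrate retention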
[17] = molecular target: T6, ATP-dependent translocase ABCB1; assay: P-gp JC-1 efflux blockade concentration-response – Jurkat-DNR cells, flow cytometry, set 2, dose response (AID 504569); format: functional; conditions: read-out: EC50_MICROM_;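 note: potency of pump inhibitors that raise cellular JC-1 green fluorescence up to the nicardipine level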
[18] = molecular target: T7, Mitochondrial peptide methionine sulfoxide reductase (Bos taurus, UniProt P54149); format: functional;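 note: absorbance read-out, biochemical high-throughput dose-response screen for MsrA inhibitors, confirmatory; recombinant bovine MsrA coupled to E. coli TrxB with NADPH and selenocystamine; potency is for inhibitors of MsrA activity on DMSO substrate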
T7 sequence (P54149 whole entry): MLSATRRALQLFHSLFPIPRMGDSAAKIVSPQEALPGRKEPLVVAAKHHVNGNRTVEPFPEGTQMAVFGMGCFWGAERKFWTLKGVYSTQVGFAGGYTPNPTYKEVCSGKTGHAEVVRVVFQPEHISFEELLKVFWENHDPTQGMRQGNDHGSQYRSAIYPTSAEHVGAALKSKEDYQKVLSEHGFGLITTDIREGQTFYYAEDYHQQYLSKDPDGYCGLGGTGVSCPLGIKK

[19] = molecular target: T8, Neuropeptide Y receptor type 1 (Homo sapiens, UniProt P25929); format: functional;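 note: HEK293 cells with a CNG channel challenged with NPY then isoproterenol; potency as antagonist that reverses NPY suppression of cAMP signal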
T8 sequence (P25929 whole entry): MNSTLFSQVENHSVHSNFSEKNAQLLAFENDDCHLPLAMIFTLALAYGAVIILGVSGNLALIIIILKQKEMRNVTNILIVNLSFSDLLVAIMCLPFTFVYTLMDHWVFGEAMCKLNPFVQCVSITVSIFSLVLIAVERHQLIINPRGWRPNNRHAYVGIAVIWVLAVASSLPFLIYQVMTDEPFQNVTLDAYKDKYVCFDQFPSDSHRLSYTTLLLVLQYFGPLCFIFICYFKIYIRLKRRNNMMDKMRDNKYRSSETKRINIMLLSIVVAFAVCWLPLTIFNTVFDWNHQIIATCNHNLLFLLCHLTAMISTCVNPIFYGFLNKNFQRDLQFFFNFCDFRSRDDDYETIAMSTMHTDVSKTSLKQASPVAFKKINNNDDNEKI

[20] = molecular target: T9, Neuropeptide Y receptor type 2 (Homo sapiens, UniProt P49146); format: functional, cell-based;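 note: HEK293 cells expressing the receptor and a CNG channel; stimulus was NPY near EC95 followed by isoproterenol to raise cAMP; antagonist potency measured as restoring cAMP signal that NPY suppresses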
T9 sequence (P49146 whole entry): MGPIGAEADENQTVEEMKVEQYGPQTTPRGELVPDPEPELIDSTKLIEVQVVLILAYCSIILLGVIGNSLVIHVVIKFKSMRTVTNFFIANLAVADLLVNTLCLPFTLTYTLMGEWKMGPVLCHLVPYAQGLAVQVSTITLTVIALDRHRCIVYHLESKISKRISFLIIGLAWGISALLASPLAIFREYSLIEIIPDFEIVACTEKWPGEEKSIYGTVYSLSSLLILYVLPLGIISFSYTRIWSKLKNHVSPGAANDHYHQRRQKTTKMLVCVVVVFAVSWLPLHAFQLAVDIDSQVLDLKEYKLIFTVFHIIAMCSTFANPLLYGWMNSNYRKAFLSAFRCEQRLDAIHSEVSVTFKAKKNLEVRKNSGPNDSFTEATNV

T6 sequence (P08183 whole entry): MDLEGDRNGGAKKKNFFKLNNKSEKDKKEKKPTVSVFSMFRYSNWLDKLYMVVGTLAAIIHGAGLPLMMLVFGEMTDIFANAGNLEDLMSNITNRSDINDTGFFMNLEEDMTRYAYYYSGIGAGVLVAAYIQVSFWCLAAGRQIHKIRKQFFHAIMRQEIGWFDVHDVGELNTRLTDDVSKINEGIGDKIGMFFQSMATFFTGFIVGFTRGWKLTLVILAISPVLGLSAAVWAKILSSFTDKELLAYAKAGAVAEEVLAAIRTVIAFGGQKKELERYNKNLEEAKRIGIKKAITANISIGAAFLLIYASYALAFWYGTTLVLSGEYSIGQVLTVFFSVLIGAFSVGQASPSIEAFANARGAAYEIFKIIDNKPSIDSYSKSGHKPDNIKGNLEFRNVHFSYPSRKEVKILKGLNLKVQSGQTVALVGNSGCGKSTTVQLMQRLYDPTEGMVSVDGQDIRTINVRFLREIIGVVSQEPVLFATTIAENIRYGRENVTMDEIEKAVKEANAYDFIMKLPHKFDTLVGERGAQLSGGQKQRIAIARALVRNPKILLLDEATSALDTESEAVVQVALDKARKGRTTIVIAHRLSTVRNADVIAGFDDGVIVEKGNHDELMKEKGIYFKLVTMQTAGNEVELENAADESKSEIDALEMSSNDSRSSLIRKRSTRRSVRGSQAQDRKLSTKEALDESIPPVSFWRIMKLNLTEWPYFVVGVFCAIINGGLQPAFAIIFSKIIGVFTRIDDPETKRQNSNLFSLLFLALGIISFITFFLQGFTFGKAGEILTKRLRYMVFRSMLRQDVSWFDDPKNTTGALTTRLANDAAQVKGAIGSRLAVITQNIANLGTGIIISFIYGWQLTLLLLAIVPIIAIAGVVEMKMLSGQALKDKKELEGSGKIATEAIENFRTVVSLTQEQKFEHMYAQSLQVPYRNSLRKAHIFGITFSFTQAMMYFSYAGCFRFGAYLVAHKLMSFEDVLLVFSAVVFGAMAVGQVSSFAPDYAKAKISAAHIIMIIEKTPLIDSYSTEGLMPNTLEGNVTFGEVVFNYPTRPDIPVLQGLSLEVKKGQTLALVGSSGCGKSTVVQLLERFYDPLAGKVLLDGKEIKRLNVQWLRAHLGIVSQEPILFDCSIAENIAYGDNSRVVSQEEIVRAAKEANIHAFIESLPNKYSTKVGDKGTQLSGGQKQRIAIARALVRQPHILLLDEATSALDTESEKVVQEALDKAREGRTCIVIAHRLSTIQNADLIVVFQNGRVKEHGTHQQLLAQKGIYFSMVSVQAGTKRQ
T4 sequence (P24666 whole entry): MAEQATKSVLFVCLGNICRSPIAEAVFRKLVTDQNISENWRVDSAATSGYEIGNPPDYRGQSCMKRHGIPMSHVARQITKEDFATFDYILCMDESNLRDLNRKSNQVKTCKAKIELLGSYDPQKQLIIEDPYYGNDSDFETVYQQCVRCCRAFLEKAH
Chain of Protein Wnt-3a (P27467 whole entry): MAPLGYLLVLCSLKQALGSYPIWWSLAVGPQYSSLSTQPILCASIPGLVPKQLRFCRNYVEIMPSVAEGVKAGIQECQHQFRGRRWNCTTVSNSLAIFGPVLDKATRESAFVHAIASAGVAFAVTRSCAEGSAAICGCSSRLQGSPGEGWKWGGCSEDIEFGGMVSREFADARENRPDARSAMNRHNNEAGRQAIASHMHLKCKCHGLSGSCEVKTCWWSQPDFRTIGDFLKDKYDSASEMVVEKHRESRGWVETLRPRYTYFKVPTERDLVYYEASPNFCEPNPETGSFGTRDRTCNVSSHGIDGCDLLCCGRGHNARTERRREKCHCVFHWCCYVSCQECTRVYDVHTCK
Chain of Ras and Rab interactor 1/Tyrosine-protein kinase ABL1 (P00519 whole entry): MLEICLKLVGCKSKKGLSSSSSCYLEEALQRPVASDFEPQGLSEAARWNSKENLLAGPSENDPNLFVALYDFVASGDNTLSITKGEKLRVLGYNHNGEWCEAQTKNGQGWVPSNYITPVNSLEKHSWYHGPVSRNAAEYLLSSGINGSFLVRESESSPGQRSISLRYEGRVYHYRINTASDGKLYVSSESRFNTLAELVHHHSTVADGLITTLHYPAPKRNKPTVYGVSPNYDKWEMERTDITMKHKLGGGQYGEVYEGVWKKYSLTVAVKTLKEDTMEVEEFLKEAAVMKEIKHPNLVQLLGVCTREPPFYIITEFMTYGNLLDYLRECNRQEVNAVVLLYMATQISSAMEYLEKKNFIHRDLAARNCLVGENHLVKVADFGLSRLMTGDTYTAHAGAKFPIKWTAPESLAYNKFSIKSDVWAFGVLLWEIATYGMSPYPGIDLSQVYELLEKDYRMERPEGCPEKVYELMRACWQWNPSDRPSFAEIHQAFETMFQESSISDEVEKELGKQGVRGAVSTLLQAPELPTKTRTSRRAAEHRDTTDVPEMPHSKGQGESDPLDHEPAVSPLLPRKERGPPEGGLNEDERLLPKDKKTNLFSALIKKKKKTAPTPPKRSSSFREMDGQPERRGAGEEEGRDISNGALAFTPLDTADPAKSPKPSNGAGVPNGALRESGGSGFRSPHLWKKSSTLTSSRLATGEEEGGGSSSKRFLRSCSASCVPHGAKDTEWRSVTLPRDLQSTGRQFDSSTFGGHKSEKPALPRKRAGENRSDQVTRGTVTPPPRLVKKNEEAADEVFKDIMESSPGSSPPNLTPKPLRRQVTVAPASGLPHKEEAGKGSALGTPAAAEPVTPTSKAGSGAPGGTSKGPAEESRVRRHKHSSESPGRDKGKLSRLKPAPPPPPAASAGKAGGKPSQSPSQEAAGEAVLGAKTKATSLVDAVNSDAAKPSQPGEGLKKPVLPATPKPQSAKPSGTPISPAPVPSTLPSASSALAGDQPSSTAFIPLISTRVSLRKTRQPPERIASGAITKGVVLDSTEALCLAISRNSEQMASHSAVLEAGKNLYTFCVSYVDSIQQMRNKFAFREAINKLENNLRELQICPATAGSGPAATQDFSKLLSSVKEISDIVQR
Chain of Ras and Rab interactor 1/Tyrosine-protein kinase ABL1 (Q13671 whole entry): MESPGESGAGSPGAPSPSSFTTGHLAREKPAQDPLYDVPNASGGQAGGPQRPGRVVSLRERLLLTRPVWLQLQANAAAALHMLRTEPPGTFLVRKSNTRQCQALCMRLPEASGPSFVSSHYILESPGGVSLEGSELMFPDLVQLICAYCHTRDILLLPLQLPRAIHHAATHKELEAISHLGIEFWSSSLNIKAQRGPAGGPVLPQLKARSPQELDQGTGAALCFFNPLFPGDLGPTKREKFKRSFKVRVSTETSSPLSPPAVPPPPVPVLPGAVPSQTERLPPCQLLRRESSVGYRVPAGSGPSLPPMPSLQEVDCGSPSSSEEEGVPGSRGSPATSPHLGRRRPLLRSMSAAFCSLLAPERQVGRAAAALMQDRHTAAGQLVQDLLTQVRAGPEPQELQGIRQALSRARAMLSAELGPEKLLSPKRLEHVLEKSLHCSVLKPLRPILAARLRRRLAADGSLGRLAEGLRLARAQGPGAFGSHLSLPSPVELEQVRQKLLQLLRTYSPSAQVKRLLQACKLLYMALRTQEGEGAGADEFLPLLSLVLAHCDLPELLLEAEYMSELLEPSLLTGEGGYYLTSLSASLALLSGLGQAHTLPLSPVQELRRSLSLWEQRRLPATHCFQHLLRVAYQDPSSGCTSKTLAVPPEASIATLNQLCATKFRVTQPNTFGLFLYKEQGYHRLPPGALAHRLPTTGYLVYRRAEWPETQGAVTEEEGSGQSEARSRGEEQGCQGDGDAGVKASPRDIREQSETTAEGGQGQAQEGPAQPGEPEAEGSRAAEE

CCc1nnc(NC(=O)CCN2C(=O)/C(=C/c3cc(OC)c(OC)c(OC)c3)SC2=S)s1
IC50 [1]: 29.9 µM (inactive) | IC50 [2]: 13.3 µM (active)

Cc1ccc(C)c(NP(=O)(Oc2ccccc2)Oc2ccccc2)c1
IC50 [3]: 26.3 µM (inactive) | IC50 (Orexin receptor type 2 [4]): > 50 µM (inactive) | IC50 (Orexin receptor type 2 [5]): > 88.8 µM (inactive) | IC50 [6]: 5.47 µM (active) | IC50 (CHO-K1): > 66.2 µM (inactive) | IC50 [7]: 49 µM (inactive)

Oc1c2c(nc3cc(-c4ccc(Cl)cc4)nn13)CCS2
IC50 [8]: 13.4 µM (active) | IC50 [9]: 16.3 µM (active)

Cc1ccc2c(c1)c(C)cc[n+]2Cc1ccccc1
IC50 (Protein Wnt-3a): 15.3 µM (active)

Cc1nc2c(ccc3nc(NC(=O)Cc4cccc5ccccc45)sc32)s1
EC50 [10]: > 120 µM (not active) | CC50 [11]: 12.2 µM (active) | IC50 [3]: 5.34 µM (active) | EC50 [12]: 16.3 µM (active) | IC50 (Orexin receptor type 2 [4]): > 50 µM (inactive) | EC50 [13]: > 195 µM (not active) | EC50 [14]: > 60 µM (not active) | IC50 (Orexin receptor type 2 [5]): 17.6 µM (inactive) | IC50 [6]: 1.45 µM (active) | IC50 (CHO-K1): > 66.2 µM (inactive) | IC50 [7]: > 49.7 µM (inactive)

Cc1cc(S(=O)(=O)N2CCN(C(=O)CCC(=O)N3CCOCC3)CC2)ccc1Br
IC50 [15]: 21.5 µM (inactive)

CC(C)(C)c1cc2nc(C(F)(F)F)cc(N3CCN(C(=O)c4cccs4)CC3)n2n1
EC50 [16]: 1.59 µM (active) | EC50 [17]: 6.06 µM (active)

CCc1nnc(S)n1/N=C/c1cc(Br)c(OC)cc1OC
IC50 [18]: 155 µM (inactive) | IC50 [19]: > 35 µM (not active) | IC50 [20]: > 35 µM (not active)
